In this assay the test system is α7 integrin promoter. The experiment in a line: muscle cell-based assay: α7βgal+/− myoblasts/myotubes, LacZ reporter, β-galactosidase cleavage of FDG. As to conditions: Myotubes; for Results in a α7+/− β-galactosidase assay, Myotubes, 0.5 uM: compound at 0.5 uM; for Results in a α7+/− β-galactosidase assay, Myotubes, 1 uM: compound at 1 uM; for Results in a α7+/− β-galactosidase assay, Myotubes, 5 uM: compound at 5 uM; for Results in a α7+/− β-galactosidase assay, Myotubes, 10 uM: compound at 10 uM; for Results in a α7+/− β-galactosidase assay, Myotubes, 20 uM: compound at 20 uM; for Results in a α7+/− β-galactosidase assay, Myotubes, 40 uM: compound at 40 uM. Details: species or system mouse. The procedure, abridged:
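Primary α7βgal+/− mouse myoblasts (LacZ knocked into α7 integrin exon 1, promoter retained), differentiated; promoter activity read as β-galactosidase conversion of non-fluorescent FDG to fluorescein. Hits followed by dose-response, western analysis and myostatin counterscreen.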

Turning to `O=C(c1ccccc1)N1CCN(S(=O)(=O)c2cccs2)CC1` [drawing 341], the “Results in a α7+/− β-galactosidase assay, Myotubes, 0.5 uM” value (from here on “Results … 0.5 uM”) amounted to 0.0882; the “Results in a α7+/− β-galactosidase assay, Myotubes, 1 uM” value (shortened to “Results … 1 uM”) is recorded as 0.04972; the “Results in a α7+/− β-galactosidase assay, Myotubes, 5 uM” value (from here on “Results … Myotubes, 5 uM”) was determined as 0.07204; the “Results in a α7+/− β-galactosidase assay, Myotubes, 10 uM” value (shortened to “Results … 10 uM”) is −0.06595. In addition, the “Results in a α7+/− β-galactosidase assay, Myotubes, 20 uM” value (shortened to “Results … 20 uM”) was −0.01414 and the “Results in a α7+/− β-galactosidase assay, Myotubes, 40 uM” value (shortened to “Results … 40 uM”) is −0.06305.

As to `COc1ccccc1C(=O)Nc1ccnn1C1CCN(C(=O)c2ccoc2)CC1` [drawing 343], the “Results … 0.5 uM” value was found to be 0.01341; the “Results … 1 uM” value is −0.07814; the “Results … Myotubes, 5 uM” value turned out to be 0.06946; the “Results … 10 uM” value amounted to 0.05194. The “Results … 20 uM” value is recorded as −0.08844 and the “Results … 40 uM” value is listed as −0.04958.

On to `CCOC(=O)c1nnn(-c2nonc2OC)c1-c1ccccc1` [drawing 344], for which the “Results … 0.5 uM” value was 0.0549; the “Results … 1 uM” value is recorded as 0.07612; the “Results … Myotubes, 5 uM” value came to 0.1364; the “Results … 10 uM” value came out at 0.03578. Besides, the “Results … 20 uM” value turned out to be 0.0782 and the “Results … 40 uM” value is −0.03173.

In the case of `CC(C)(C)Nc1nc(-c2ccc3c(c2)CCN3C(=O)C2CC2)cs1` [drawing 345], the “Results … 0.5 uM” value amounted to 0.1684; the “Results … 1 uM” value turned out to be 0.1611; the “Results … Myotubes, 5 uM” value came out at 0.06864; the “Results … 10 uM” value came to 0.06011. The “Results … 20 uM” value is given as −0.1349 and the “Results … 40 uM” value is on record as −0.5189.

Take `CCN(C(=O)c1ccc(S(=O)(=O)N(C)C)cc1)C(C)C(=O)Nc1ccc(C)cc1` (stereo not drawn) [drawing 348]: the “Results … 0.5 uM” value is reported as −0.152; the “Results … 1 uM” value is on record as −0.2399; the “Results … Myotubes, 5 uM” value is listed as −0.0943; the “Results … 10 uM” value was determined as 0.05776. Also, the “Results … 20 uM” value was −0.2237 and the “Results … 40 uM” value was 0.02912.

Take `COc1cc(NC(=O)OCc2ccccc2)c2ncccc2c1` [drawing 349]: the “Results … 0.5 uM” value is given as 0.01764; the “Results … 1 uM” value came to 0.03267; the “Results … Myotubes, 5 uM” value is listed as −0.1098; the “Results … 10 uM” value is −0.05054. Also, the “Results … 20 uM” value was −0.1951 and the “Results … 40 uM” value was −0.2383.

Take `Cc1ccc2c(c1)/C(=C/c1ccccc1C)C(=O)N2` [drawing 350]: the “Results … 0.5 uM” value was −0.01581; the “Results … 1 uM” value is reported as −0.0839; the “Results … Myotubes, 5 uM” value is −0.04071; the “Results … 10 uM” value is 0.0246. The “Results … 20 uM” value is on record as −0.4093 and the “Results … 40 uM” value is reported as −0.6283.

For `O=C(NCCc1ccccc1)C1CCC(=O)N1C1CCCC1` (stereo not drawn) [drawing 351], the “Results … 0.5 uM” value is 0.05429; the “Results … 1 uM” value is recorded as −0.1351; the “Results … Myotubes, 5 uM” value is recorded as 0.08688; the “Results … 10 uM” value is 0.1206. For the same compound, the “Results … 20 uM” value was −0.1635 and the “Results … 40 uM” value is recorded as −0.1123.

As for `CCCN(C(=O)c1ccc(S(=O)(=O)N2CCCC2)cc1)C1CCS(=O)(=O)C1` (stereo not drawn) [drawing 352], the “Results … 0.5 uM” value is reported as −0.1044; the “Results … 1 uM” value is given as −0.1728; the “Results … Myotubes, 5 uM” value is recorded as −0.01555; the “Results … 10 uM” value came to 0.1537. For the same compound, the “Results … 20 uM” value was −0.08104 and the “Results … 40 uM” value was −0.06466.

As to `C=CCOc1ccc(C(=O)/C=C2\C(=O)Nc3ccccc32)cc1` [drawing 353], the “Results … 0.5 uM” value was −0.02111; the “Results … 1 uM” value is reported as −0.0826; the “Results … Myotubes, 5 uM” value is reported as −0.09703; the “Results … 10 uM” value worked out at 0.05145. Moreover, the “Results … 20 uM” value is given as −0.2835 and the “Results … 40 uM” value was −0.2827.

Regarding `CCN(CC(=O)NCc1cccs1)C(=O)COc1ccc(C(N)=O)cc1` [drawing 354], the “Results … 0.5 uM” value is listed as 0.06872; the “Results … 1 uM” value is listed as −0.07237; the “Results … Myotubes, 5 uM” value was 0.09763; the “Results … 10 uM” value came out at 0.2952. For the same compound, the “Results … 20 uM” value is given as −0.2218 and the “Results … 40 uM” value is recorded as −0.02391.

`CC(C)Oc1cccc(C(=O)Nc2ccc(CN3CCOCC3)cc2)c1` [drawing 355]: the “Results … 0.5 uM” value is reported as −0.02164; the “Results … 1 uM” value is −0.1398; the “Results … Myotubes, 5 uM” value is given as 0.1741; the “Results … 10 uM” value is 0.1947. Also, the “Results … 20 uM” value is on record as −0.2357 and the “Results … 40 uM” value is listed as −0.1159.

With `Cc1ccc(/C=C2\C(=O)Nc3ccccc32)o1` [drawing 356], the “Results … 0.5 uM” value was 0.09656; the “Results … 1 uM” value is on record as −0.02249; the “Results … Myotubes, 5 uM” value was −0.1043; the “Results … 10 uM” value is −0.06876. The “Results … 20 uM” value is listed as −0.2369 and the “Results … 40 uM” value is reported as −0.336.

With `O=c1[nH]c(CN2CCCCC2)cc2c1C1(CCCCC1)Cc1ccccc1-2` [drawing 357], the “Results … 0.5 uM” value was found to be 0.1087; the “Results … 1 uM” value is 0.1264; the “Results … Myotubes, 5 uM” value is −0.08739; the “Results … 10 uM” value is recorded as −0.0441. In addition, the “Results … 20 uM” value is reported as −0.09507 and the “Results … 40 uM” value is given as −0.1888.

Consider `COc1ccccc1NS(=O)(=O)c1cc(NC(=O)c2ccc(Cl)nc2)ccc1N1CCCC1` [drawing 358], for which the “Results … 0.5 uM” value stood at 0.1418; the “Results … 1 uM” value is 0.2243; the “Results … Myotubes, 5 uM” value stood at 0.0609; the “Results … 10 uM” value turned out to be 0.2352. For the same compound, the “Results … 20 uM” value is listed as −0.07572 and the “Results … 40 uM” value was −0.1492.

Take `N#C/C(=C1/C(=O)Nc2ccc(Br)cc21)c1ccccn1` [drawing 359]: the “Results … 0.5 uM” value was 0.2651; the “Results … 1 uM” value is recorded as 0.03214; the “Results … Myotubes, 5 uM” value is given as −0.1525; the “Results … 10 uM” value was −0.1528. Also, the “Results … 20 uM” value is recorded as −0.2624 and the “Results … 40 uM” value is listed as −0.2931.

`N#CC1=C2SCN(c3ccccc3)CN2C(=O)CC1c1cccs1` (stereo not drawn) [drawing 360]: the “Results … 0.5 uM” value stood at 0.09082; the “Results … 1 uM” value amounted to 0.1158; the “Results … Myotubes, 5 uM” value is given as −0.0988; the “Results … 10 uM” value is reported as −0.03259. The “Results … 20 uM” value was −0.2578 and the “Results … 40 uM” value is listed as −0.3783.

As for `COc1ccc(C(=O)/C=C2\C(=O)Nc3ccccc32)cc1` [drawing 361], the “Results … 0.5 uM” value worked out at 0.1208; the “Results … 1 uM” value is reported as 0.06821; the “Results … Myotubes, 5 uM” value is listed as −0.04505; the “Results … 10 uM” value was −0.256. Also, the “Results … 20 uM” value was −0.3122 and the “Results … 40 uM” value was −0.5124.

For the compound `O=C(O)c1csc(-c2cccs2)n1` [drawing 362], the “Results … 0.5 uM” value worked out at 0.2703; the “Results … 1 uM” value is on record as 0.2837; the “Results … Myotubes, 5 uM” value was 0.2451; the “Results … 10 uM” value is on record as −0.02819. Also, the “Results … 20 uM” value was −0.1366 and the “Results … 40 uM” value is listed as −0.1007.

Consider `COc1cccc(C(=O)COc2ccc3ccc(=O)oc3c2)c1` [drawing 363], for which the “Results … 0.5 uM” value worked out at 0.3069; the “Results … 1 uM” value is listed as 0.2317; the “Results … Myotubes, 5 uM” value came out at 0.07669; the “Results … 10 uM” value was determined as 0.03997. Also, the “Results … 20 uM” value is listed as −0.3325 and the “Results … 40 uM” value is reported as −0.3127.

`CCCS(=O)(=O)c1nc(S(=O)(=O)c2ccc(C)cc2)c(N2CCCC2)s1` [drawing 364]: the “Results … 0.5 uM” value worked out at 0.01021; the “Results … 1 uM” value was 0.05992; the “Results … Myotubes, 5 uM” value is reported as −0.01197; the “Results … 10 uM” value is recorded as −0.0108. For the same compound, the “Results … 20 uM” value is on record as −0.2345 and the “Results … 40 uM” value is −0.3321.

The values are drawn from patent US10028992B2, “Methods of treating muscular dystrophy” (BOARD OF REGENTS OF THE NEVADA SYSTEM OF HIGHER EDUCATION …, priority 2012, dated 2018).
